Assays:
Type in all cases: in vivo
Conditions in all cases: evaluated after 13 days
Setaria faberi (SETFA) [1] = experiment: Pre-emergence Test, Setaria faberi (SETFA)
[2] = test system: Echinochloa crus-galli (ECHCG); experiment: Pre-emergence Test, Echinochloa crus-galli (ECHCG)
Zea mays (ZEAMX) [3] = experiment: Pre-emergence Test, Zea mays (ZEAMX)
[4] = test system: Ipomoea hederacea (IPOHE); experiment: Pre-emergence Test, Ipomoea hederacea (IPOHE)
[5] = test system: Amaranthus palmeri (AMAPA); experiment: Pre-emergence Test, Amaranthus palmeri (AMAPA)
[6] = test system: Amaranthus retoflexus (AMARE); experiment: Pre-emergence Test, Amaranthus retoflexus (AMARE)
Setaria faberi (SETFA) [7] = experiment: Post-emergence Test, Setaria faberi (SETFA); design: key to percentage damage caused to the plant, SETFA (five-point scale): 5=81-100%, 4=61-80%, 3=41-60%, 2=21-40%, 1=0-20% damage
Outline: (§1)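 Spray application at 1000 g/ha unless otherwise stated. Damage was scored 13 days later as 1 (0-20%) to 5 (81-100%).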

[8] = test system: Echinochloa crus-galli (ECHCG); experiment: Post-emergence Test, Echinochloa crus-galli (ECHCG); design: key to percentage damage caused to the plant, ECHCG (five-point scale): 5=81-100%, 4=61-80%, 3=41-60%, 2=21-40%, 1=0-20% damage
Outline: as §1

Zea mays (ZEAMX) [9] = experiment: Post-emergence Test, Zea mays (ZEAMX); design: key to percentage damage caused to the plant, ZEAMX (five-point scale): 5=81-100%, 4=61-80%, 3=41-60%, 2=21-40%, 1=0-20% damage
Outline: as §1

[10] = test system: Ipomoea hederacea (IPOHE); experiment: Post-emergence Test, Ipomoea hederacea (IPOHE); design: key to percentage damage caused to the plant, IPOHE (five-point scale): 5=81-100%, 4=61-80%, 3=41-60%, 2=21-40%, 1=0-20% damage
Outline: as §1

[11] = test system: Amaranthus palmeri (AMAPA); experiment: Post-emergence Test, Amaranthus palmeri (AMAPA); design: key: 5=81-100%, 4=61-80%, 3=41-60%, 2=21-40%, 1=0-20% damage
Outline: as §1

[12] = test system: Amaranthus retoflexus (AMARE); experiment: Post-emergence Test, Amaranthus retoflexus (AMARE); design: key to percentage damage caused to the plant, AMARE (five-point scale): 5=81-100%, 4=61-80%, 3=41-60%, 2=21-40%, 1=0-20% damage
Outline: as §1

Row | SMILES | Pre-emergence Test SETFA, percentage damage caused to the plant (five-point scale) (Setaria faberi (SETFA) [1]; 250 g/Ha (*)) | Pre-emergence Test SETFA, percentage damage caused to the plant (five-point scale) (Setaria faberi (SETFA) [1]; 1000 g/ha) | Pre-emergence Test ECHCG, percentage damage caused to the plant (five-point scale) ([2]; 250 g/Ha (*)) | Pre-emergence Test ECHCG, percentage damage caused to the plant (five-point scale) ([2]; 1000 g/ha) | Pre-emergence Test ZEAMX, percentage damage caused to the plant (five-point scale) (Zea mays (ZEAMX) [3]; 250 g/Ha (*)) | Pre-emergence Test ZEAMX, percentage damage caused to the plant (five-point scale) (Zea mays (ZEAMX) [3]; 1000 g/ha) | Pre-emergence Test IPOHE, percentage damage caused to the plant (five-point scale) ([4]; 250 g/Ha (*)) | Pre-emergence Test IPOHE, percentage damage caused to the plant (five-point scale) ([4]; 1000 g/ha) | Pre-emergence Test AMAPA, percentage damage caused to the plant (five-point scale) ([5]; 250 g/Ha (*)) | Pre-emergence Test AMAPA, percentage damage caused to the plant (five-point scale) ([5]; 1000 g/ha) | Pre-emergence Test AMARE, percentage damage caused to the plant (five-point scale) ([6]; 250 g/Ha (*)) | Pre-emergence Test AMARE, percentage damage caused to the plant (five-point scale) ([6]; 1000 g/ha) | percentage damage caused to the plant, SETFA (five-point scale) (Setaria faberi (SETFA) [7]; 250 g/Ha) | percentage damage caused to the plant, SETFA (five-point scale) (Setaria faberi (SETFA) [7]; 1000 g/ha) | percentage damage caused to the plant, ECHCG (five-point scale) ([8]; 250 g/Ha) | percentage damage caused to the plant, ECHCG (five-point scale) ([8]; 1000 g/ha) | percentage damage caused to the plant, ZEAMX (five-point scale) (Zea mays (ZEAMX) [9]; 250 g/Ha) | percentage damage caused to the plant, ZEAMX (five-point scale) (Zea mays (ZEAMX) [9]; 1000 g/ha) | percentage damage caused to the plant, IPOHE (five-point scale) ([10]; 250 g/Ha) | percentage damage caused to the plant, IPOHE (five-point scale) ([10]; 1000 g/ha) | other results
1 | CCn1c(Cn2nc(C)cc2OC(F)F)cc(=O)c(C(=O)O)c1-c1ccc(Cl)c(Cl)c1 [Compound 150, 2-(3,4-dichlorophenyl)-6-[[5-(difluoromethoxy)-3-methyl-pyrazol-1-yl]methyl]-1-ethyl-4-oxo-pyridine-3-carboxylic acid] | 5 (5=81-100%) | 5 (5=81-100%) | 4 (4=61-80%) | 5 (5=81-100%) | 1 (1=0-20%) | 3 (3=41-60%) | 1 (1=0-20%) | 4 (4=61-80%) | 1 (1=0-20%) | 2 (2=21-40%) | 0 | 1 (1=0-20%) | 4 (4=61-80%) | 4 (4=61-80%) | 2 (2=21-40%) | 4 (4=61-80%) | 1 (1=0-20%) | 3 (3=41-60%) | 4 (4=61-80%) | 2 (2=21-40%) | percentage damage caused to the plant, AMAPA (five-point scale) ([11]; 250 g/Ha): 0; percentage damage caused to the plant, AMAPA (five-point scale) ([11]; 1000 g/ha): 1 (1=0-20%); percentage damage caused to the plant, AMARE (five-point scale) ([12]; 250 g/Ha): 0; percentage damage caused to the plant, AMARE (five-point scale) ([12]; 1000 g/ha): 2 (2=21-40%)
2 | CCn1c(Cn2nc(C(F)(F)F)cc2OC(F)F)cc(=O)c(C(=O)O)c1-c1ccc(Cl)c(Cl)c1 [Compound 151, 2-(3,4-dichlorophenyl)-6-[[5-(difluoromethoxy)-3-(trifluoromethyl)pyrazol-1-yl]methyl]-1-ethyl-4-oxo-pyridine-3-carboxylic acid] | 5 (5=81-100%) | 5 (5=81-100%) | 5 (5=81-100%) | 5 (5=81-100%) | 2 (2=21-40%) | 2 (2=21-40%) | 2 (2=21-40%) | 4 (4=61-80%) | 0 | 1 (1=0-20%) | 0 | 0 | 4 (4=61-80%) | 4 (4=61-80%) | 3 (3=41-60%) | 4 (4=61-80%) | 1 (1=0-20%) | 3 (3=41-60%) | 4 (4=61-80%) | 4 (4=61-80%) | percentage damage caused to the plant, AMAPA (five-point scale) ([11]; 250 g/Ha): 1 (1=0-20%); percentage damage caused to the plant, AMAPA (five-point scale) ([11]; 1000 g/ha): 2 (2=21-40%); percentage damage caused to the plant, AMARE (five-point scale) ([12]; 250 g/Ha): 1 (1=0-20%); percentage damage caused to the plant, AMARE (five-point scale) ([12]; 1000 g/ha): 3 (3=41-60%)

— US20250098679A1, “HERBICIDAL PYRIDONE DERIVATIVES” (SYNGENTA CROP PROTECTION AG, priority 2021, published 2025)
